From publication PMC8879825, “Identification of α-Glucosidase Inhibitors from Scutellaria edelbergii: ESI-LC-MS and Computational Approach” (Molecules, 2022)
In brackets after ≈: the same amount, converted by molar mass.

Biological target: yeast α-glucosidase enzymes
Experiment: α-Glucosidase inhibitory assay
Assay type: biochemical
Details: substrate p-nitrophenyl-α-D-glucopyranoside, pH 6.8, 37 °C
Experimental: The α-glucosidase assay was performed using 50 mM phosphate buffer (pH 6.8). All samples were dissolved in DMSO. An enzyme (2 U/2 mL) 20 µL/well and test samples (0.5 mg/mL) 20 µL/well and 135 µL/well phosphate buffer were loaded into a 96-well plate, followed by 15 min of incubation at 37 °C. Substrate p-nitrophenyl-α-D-glucopyranoside (0.7 mM) 25 µL/well was added to the 96-well plate after 15 min of incubation, and readings were measured at 400 nm for 30 min. DMSO 7% was used as a positive control. Percent inhibition was calculated by using the following formula [30]. % Inhibition=100×O.D of tested samples/O.D. of control−100
OD is the optical density of the tested samples.

SMILES: C[C@H]1O[C@H](O[C@H]2[C@H](O)[C@@H](O)[C@@H](O[C@H]3[C@H](O)[C@@H](O)C(O)O[C@@H]3CO)O[C@@H]2CO)[C@H](O)[C@@H](O)[C@@H]1N[C@H]1C=C(CO)[C@@H](O)[C@H](O)[C@H]1O (stereo partly shown) [acarbose]
- IC50 (α-glucosidase inhibition): 377.26 ± 1.20 µg/mL (≈ 584 µM)
